Here are results for 1 molecule from patent US5912266A, “Beta2 integrin cell adhesion molecule inhibitors” (American Home Products Corporation, priority 1997, dated 1999).

Values joined by “and” are separate entries in the source; they are usually repeats but may differ in a detail not shown here. Identical values can stand only once.

As usually defined, the inhibition is the drop in the measured response relative to a control, in per cent.

This test addresses T1, E-selectin (Homo sapiens, UniProt P16581).
T1 construct: calcein-labelled HL60 cells adhere
T1 sequence (P16581 22-556 limits assumed): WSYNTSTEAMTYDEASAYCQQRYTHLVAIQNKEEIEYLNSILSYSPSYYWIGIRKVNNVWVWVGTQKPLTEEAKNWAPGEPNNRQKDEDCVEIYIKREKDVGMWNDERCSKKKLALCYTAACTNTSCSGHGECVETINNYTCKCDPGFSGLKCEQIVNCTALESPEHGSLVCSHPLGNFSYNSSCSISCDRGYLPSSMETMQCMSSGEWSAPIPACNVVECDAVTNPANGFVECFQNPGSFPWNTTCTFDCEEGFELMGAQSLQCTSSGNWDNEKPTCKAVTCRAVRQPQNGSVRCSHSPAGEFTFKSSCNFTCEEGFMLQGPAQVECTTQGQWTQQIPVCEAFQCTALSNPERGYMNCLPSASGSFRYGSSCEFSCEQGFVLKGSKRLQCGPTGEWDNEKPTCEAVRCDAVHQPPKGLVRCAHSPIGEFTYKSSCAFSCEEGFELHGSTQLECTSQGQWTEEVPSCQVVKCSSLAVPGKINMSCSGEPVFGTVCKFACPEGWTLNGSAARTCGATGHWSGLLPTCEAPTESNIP
The test can be described thus: Adhesion of HL60 cells to recombinant, soluble, human E-selectin. Type of test: cell-based. As to conditions: for Percent Cells Bound: single well. On the procedure:
rsE-selectin was prepared and purified using standard molecular biology techniques. HL60 cells were obtained from American Type Culture Collection (ATCC) and maintained in culture media, as described in Example I, except that cells could be used in the assay at any passage number. Other materials required for the assay are as described in Examples I and II.
200 ng of purified, recombinant, soluble E-selectin contained in 100 μl of dPBS was added to wells of a flat bottom 96 well EIA/RIA plate. The control wells were filled with dPBS only and the assay plate was incubated at 4° C. for at least 18 hours to allow the rsE-selectin to bind to assay wells. The rsE-selectin solution was removed from the wells of the assay plate, washed, and blocked with 1% BSA, as described in Example II.
HL60 cells were harvested from culture, washed and labeled with calcein AM as outlined in Example I, except that the concentration of calcein used to label the HL-60 cells was 12.5 μM and cells were centrifuged at 1000 rpm for 5 minutes. After the final cell wash (see Example I), the cells were resuspended in ice-cold PMN buffer to 1.0×10^5 cells/40 μl and the cells were placed in the dark at room temperature until added to the assay plate.
The asperlin solutions were prepared as described in Example I. The dPBS remaining in the wells of the assay plate was removed by inverting the plate and tapping it on paper toweling and the assay was performed as described in Example II. 100 μl of PMN buffer was added to all wells of the assay plate and the fluorescence of the adherent HL-60 cells binding to rsE-selectin was measured using a fluorescent plate reader, described in Example I. The percentage of HL60 cells binding to E-selectin and the percentage of inhibition of HL60 cell adhesion to E-selectin in the presence of asperlin were also quantitated as described in Example II.

On to `CC(=O)OC1C=CC(=O)OC1C1OC1C` [Asperlin, 6,7-Anhydro-2,3,8-trideoxy-D-galacto-oct-2-enoic acidδ-lactone 4-acetate], for which, where the note is “Asperlin 100 μg/ml”, the “Average Percent Bound” value is given as 62%; the “Bound Cell Fluorescence” value is 1412 fluorescence units/well and 1096 fluorescence units/well; the “Percent Cells Bound” value was 64% and 59%. Moreover, where the note is “Asperlin 200 μg/ml”, the “Average Percent Bound” value turned out to be 48%; the “Bound Cell Fluorescence” value is 1124 fluorescence units/well and 887 fluorescence units/well; the “Percent Cells Bound” value is 52% and 44%. The inhibition at 100 µg/mL (HL-60, Asperlin 100 μg/ml) is -19%. In addition, the inhibition at 200 µg/mL (HL-60, Asperlin 200 μg/ml) worked out at 8%. For the same molecule, the “Effect on E-selectin mediated HL60 cell binding (in words)” value (summary of Table III) was “does not inhibit E-selectin mediated HL60 cell binding”.
